Assay results taken from patent publication US9440969B2, “Compounds and methods for kinase modulation, and indications therefor” (PLEXXIKON INC., priority 2009, dated 2016).

Columns and labels:
[1] = Relative solubility by turbidity in aqueous buffers (pH 1.5, 4.5, 6.8, 7.4); format: physicochemical; details: for turbidity threshold (L, M, H) 1.4: pH 1.5 buffer (SGF); for turbidity threshold (L, M, H) 4.5: pH 4.5 buffer (SIF); for turbidity threshold (L, M, H) 6.8: pH 6.8 buffer (SIF); for turbidity threshold (L, M, H) 7.4: pH 7.4 buffer (HEPES)
In short: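 2-fold DMSO dilution series from 25 mM stocks were added to SGF (0.5M NaCl, pH 1.5), SIF (0.05M NaH2PO4, pH 4.5/6.8) or HEPES (10 mM, 150 mM NaCl, pH 7.4). Absorbance at 490, 535 and 650 nm; value is the concentration crossing OD 0.01, averaged over wavelengths. Low <31.3 μM, moderate 31.3–250 μM, high >250 μM.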

CYP1A2 = molecular target: T1, CYP1A2 (Homo sapiens, UniProt P05177); assay: CYP1A2 inhibition (fluorescent substrate CEC); format: in vitro ADME; details: read-out: Cyp IC50 (μM) 1A2
T1 sequence (P05177 1-516): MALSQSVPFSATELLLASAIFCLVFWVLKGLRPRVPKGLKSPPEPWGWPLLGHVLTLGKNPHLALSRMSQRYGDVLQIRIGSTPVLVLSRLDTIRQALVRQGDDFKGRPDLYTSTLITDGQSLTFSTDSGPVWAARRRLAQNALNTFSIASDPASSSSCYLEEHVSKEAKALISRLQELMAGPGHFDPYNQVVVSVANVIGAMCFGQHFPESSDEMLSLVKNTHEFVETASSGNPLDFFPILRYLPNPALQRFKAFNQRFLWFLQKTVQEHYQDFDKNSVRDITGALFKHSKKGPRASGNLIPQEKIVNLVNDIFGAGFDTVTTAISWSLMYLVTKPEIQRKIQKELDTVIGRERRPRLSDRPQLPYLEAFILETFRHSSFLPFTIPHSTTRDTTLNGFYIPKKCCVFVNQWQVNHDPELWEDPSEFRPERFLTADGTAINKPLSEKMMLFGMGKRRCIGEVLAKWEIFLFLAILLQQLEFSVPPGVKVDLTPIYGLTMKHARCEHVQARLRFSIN
Experimental: (§1) CYP (Cytochrome P450) enzymes are the major drug metabolizing enzymes present in the liver. The inhibition of CYP enzyme activity (IC50) for each of CYP1A2, CYP2C19, CYP2C9, CYP2D6, CYP3A4(BFC) and CYP3A4(BQ) is determined for compounds, where inhibition of metabolism of a known substrate leads to a decrease in the fluorescence of the metabolized product. The fluorescence of the product is monitored as a function of compound concentration. Compounds are dissolved in dimethyl sulfoxide to a concentration of 100 mM. These are diluted […], into 82 μL of acetonitrile. An 11 μL aliquot of this solution is then added to 204 μL of cofactor mix (1.3% NADPH Regeneration system Solution A, 1.04% NADPH Regeneration system Solution B from BD Biosciences, 5% acetonitrile and 0.05% dimethyl sulfoxide). These are then serially diluted 1:1 (160 μL to 160 μL co-factor mix) for a total of 10 points. A 10 μL aliquot of this final mixture is dispensed into 384 well assay plates and incubated for 10 minutes at 37° C. Enzyme and substrate mix (10 μL; 0.5 pmol CYP1A2/5 μM CEC; 1.0 pmol CYP2C9/75 μM MFC; 0.5 pmol CYP2C19/25 μM CEC; 1.5 pmol CYP2D6/1.5 μM AMMC; 1.0 pmol CYP3A4/50 μM BFC; or 1.0 pmol CYP3A4/40 μM BQ) is added to these assay plates. Assay plates are incubated at 37° C. (CYP1A2-15 min; CYP2C9-45 min; CYP2C19, 2D6 and 3A4-30 min) and read in a Tecan Safire 2 plate reader (CYP1A2, 2C19 and 3A4 409 ex/460 em; CYP2C9 and 2D6 409 ex/530 em). The signal versus compound concentration is used to determine the IC50. The enzymes and substrates for this assay are obtained from BD Biosciences.

CYP2C19 = CYP2C19 (Homo sapiens, UniProt P33261); assay: CYP2C19 inhibition (fluorescent substrate CEC); format: in vitro ADME; details: read-out: Cyp IC50 (μM) 2C19
Experimental: as §1

CYP2C9 = CYP2C9 (Homo sapiens, UniProt P11712); assay: CYP2C9 inhibition (fluorescent substrate MFC); format: in vitro ADME; details: read-out: Cyp IC50 (μM) 2C9
Experimental: as §1

CYP2D6 = CYP2D6 (Homo sapiens, UniProt P10635); assay: CYP2D6 inhibition (fluorescent substrate AMMC); format: in vitro ADME; details: read-out: Cyp IC50 (μM) 2D6
Experimental: as §1

CYP3A4(BFC) = CYP3A4(BFC) (Homo sapiens, UniProt P08684); assay: CYP3A4 inhibition (substrate BFC); format: in vitro ADME; details: read-out: Cyp IC50 (μM) 3A4(BFC)
Experimental: as §1

CYP3A4(BQ) = CYP3A4(BQ) (Homo sapiens, UniProt P08684); assay: CYP3A4 inhibition (substrate BQ); format: in vitro ADME; details: read-out: Cyp IC50 (μM) 3A4(BQ)
Experimental: as §1

c-Raf-1 = c-Raf-1 (Homo sapiens, UniProt P04049); assay: c-Raf-1 kinase activity assay (AlphaScreen, biotin-MEK1 substrate); details: 100 μM ATP, 100 nM biotin-MEK1, 45 minutes at room temperature; read-out: Biochemical activity (IC50 μM) c-Raf-1
In short: (§2)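 Each Raf enzyme (0.1 ng) phosphorylates 100 nM biotin-MEK1 in pH 7.0 HEPES with Mg2+/Mn2+, 100 μM ATP final, 45 min at room temperature. Phospho-MEK1/2 antibody with AlphaScreen beads is read after 3 h. IC50 comes from an 8-point dilution series.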

B-Raf = B-Raf (Homo sapiens, UniProt P15056); assay: B-Raf kinase activity assay (AlphaScreen, biotin-MEK1 substrate); details: 100 μM ATP, 100 nM biotin-MEK1, 45 minutes at room temperature; read-out: Biochemical activity (IC50 μM) B-Raf
In short: as §2

B-Raf V600E = B-Raf V600E (Homo sapiens, UniProt P15056, V600E); assay: B-Raf V600E kinase activity assay (AlphaScreen, biotin-MEK1 substrate); details: 100 μM ATP, 100 nM biotin-MEK1, 45 minutes at room temperature, read-out: Biochemical activity (IC50 μM) V600E
In short: as §2

Sequence of CYP3A4(BFC) (P08684 whole entry): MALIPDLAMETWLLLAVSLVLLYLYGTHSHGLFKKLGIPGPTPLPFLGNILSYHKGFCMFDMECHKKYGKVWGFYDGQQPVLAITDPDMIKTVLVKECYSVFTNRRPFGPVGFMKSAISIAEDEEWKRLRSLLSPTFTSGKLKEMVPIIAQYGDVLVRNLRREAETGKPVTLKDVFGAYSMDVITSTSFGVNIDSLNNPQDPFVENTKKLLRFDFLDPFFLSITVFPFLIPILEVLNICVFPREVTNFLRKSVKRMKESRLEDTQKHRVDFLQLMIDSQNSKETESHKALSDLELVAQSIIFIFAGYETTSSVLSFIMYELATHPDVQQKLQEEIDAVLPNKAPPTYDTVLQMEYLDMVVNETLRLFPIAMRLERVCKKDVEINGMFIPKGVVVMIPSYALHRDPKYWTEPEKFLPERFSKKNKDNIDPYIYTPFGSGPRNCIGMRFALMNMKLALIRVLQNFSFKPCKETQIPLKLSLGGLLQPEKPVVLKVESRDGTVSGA
Sequence of CYP3A4(BQ) (P08684 whole entry): as above
Sequence of CYP2D6 (P10635 whole entry): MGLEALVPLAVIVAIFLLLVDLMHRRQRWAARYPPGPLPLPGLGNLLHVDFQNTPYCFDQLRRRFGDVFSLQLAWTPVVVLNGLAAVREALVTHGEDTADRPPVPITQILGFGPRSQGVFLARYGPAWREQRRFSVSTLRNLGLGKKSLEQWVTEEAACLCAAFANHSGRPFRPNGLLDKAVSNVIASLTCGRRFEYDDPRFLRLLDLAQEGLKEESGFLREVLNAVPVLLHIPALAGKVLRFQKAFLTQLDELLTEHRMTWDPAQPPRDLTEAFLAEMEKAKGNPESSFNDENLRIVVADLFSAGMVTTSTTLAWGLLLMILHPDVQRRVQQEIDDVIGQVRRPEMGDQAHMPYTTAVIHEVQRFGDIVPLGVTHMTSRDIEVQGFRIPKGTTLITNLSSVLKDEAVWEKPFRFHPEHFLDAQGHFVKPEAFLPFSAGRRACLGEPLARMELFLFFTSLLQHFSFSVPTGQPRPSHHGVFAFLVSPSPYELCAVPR
Sequence of CYP2C19 (P33261 whole entry): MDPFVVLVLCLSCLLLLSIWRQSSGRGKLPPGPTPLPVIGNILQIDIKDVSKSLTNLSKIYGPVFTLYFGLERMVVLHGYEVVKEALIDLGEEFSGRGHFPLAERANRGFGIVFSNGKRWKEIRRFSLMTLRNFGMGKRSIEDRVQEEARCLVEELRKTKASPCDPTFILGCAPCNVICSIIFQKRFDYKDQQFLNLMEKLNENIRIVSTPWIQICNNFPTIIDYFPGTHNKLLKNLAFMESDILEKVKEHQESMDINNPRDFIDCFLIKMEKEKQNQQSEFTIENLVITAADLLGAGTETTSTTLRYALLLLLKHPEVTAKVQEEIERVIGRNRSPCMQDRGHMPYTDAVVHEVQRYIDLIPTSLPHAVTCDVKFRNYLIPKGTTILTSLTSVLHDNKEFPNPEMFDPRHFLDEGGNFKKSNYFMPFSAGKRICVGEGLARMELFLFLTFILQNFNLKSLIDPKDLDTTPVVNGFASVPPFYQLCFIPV
Sequence of CYP2C9 (P11712 whole entry): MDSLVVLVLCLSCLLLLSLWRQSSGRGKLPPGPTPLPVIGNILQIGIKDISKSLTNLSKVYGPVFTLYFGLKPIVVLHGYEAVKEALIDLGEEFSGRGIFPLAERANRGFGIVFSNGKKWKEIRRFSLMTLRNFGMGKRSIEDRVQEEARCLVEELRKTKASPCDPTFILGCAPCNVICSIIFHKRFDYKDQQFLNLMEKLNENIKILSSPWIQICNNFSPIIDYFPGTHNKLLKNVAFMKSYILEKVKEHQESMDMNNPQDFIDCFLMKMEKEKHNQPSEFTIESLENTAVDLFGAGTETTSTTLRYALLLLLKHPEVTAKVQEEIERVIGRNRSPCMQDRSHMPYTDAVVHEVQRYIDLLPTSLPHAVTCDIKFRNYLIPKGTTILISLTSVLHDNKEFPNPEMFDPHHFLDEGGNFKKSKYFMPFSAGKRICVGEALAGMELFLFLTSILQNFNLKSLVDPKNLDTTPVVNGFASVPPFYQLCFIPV
Sequence of c-Raf-1 (P04049 whole entry Y340D/Y341D, form open): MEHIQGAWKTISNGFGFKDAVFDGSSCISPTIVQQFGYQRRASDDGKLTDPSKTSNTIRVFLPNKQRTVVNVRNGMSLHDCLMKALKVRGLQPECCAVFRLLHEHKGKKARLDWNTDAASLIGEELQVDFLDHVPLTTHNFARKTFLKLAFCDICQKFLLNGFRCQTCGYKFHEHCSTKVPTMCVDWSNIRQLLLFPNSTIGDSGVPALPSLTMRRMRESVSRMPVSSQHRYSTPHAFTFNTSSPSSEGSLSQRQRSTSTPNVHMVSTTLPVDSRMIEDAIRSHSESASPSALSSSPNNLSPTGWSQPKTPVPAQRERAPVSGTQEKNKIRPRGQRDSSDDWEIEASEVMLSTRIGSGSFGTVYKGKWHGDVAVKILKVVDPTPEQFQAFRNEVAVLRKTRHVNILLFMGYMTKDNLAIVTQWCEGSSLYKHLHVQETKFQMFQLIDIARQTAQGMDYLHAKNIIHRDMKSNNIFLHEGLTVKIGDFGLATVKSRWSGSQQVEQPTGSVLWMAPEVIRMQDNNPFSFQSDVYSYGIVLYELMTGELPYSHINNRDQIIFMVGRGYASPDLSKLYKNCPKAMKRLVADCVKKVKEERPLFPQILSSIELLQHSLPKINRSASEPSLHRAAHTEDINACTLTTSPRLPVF
Sequence of B-Raf (P15056 whole entry): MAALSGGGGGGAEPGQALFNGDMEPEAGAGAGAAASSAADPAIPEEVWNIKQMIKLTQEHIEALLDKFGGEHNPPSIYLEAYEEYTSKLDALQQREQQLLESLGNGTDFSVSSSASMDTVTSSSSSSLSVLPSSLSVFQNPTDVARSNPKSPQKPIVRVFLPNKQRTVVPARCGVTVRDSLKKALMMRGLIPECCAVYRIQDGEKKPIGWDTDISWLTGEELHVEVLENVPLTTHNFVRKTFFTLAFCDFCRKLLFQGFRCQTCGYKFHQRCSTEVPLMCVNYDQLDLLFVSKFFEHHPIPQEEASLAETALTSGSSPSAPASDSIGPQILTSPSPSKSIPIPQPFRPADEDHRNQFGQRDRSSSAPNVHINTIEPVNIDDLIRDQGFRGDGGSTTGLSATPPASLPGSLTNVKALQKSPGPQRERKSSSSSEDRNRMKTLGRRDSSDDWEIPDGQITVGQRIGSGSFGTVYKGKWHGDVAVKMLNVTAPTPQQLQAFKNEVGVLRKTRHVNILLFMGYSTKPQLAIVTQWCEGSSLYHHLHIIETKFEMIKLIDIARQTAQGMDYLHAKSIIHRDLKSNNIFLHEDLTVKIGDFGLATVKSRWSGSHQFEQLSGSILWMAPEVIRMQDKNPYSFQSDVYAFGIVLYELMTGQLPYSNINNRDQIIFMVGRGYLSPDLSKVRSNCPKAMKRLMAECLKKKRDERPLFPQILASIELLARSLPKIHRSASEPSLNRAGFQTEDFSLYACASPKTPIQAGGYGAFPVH
Sequence of B-Raf V600E (P15056 whole entry V600E): as the sequence (P15056 whole entry) above, with V600E counted along it

With CCCS(=O)(=O)Nc1ccc(F)c(C(=O)c2c[nH]c3ncc(-c4ccc5cccnc5c4)cc23)c1F [P-0033, Propane-1-sulfonic acid [2,4-difluoro-3-(5-quinolin-7-yl-1H-pyrrolo[2,3-b]pyridine-3-carbonyl)-phenyl]-amide] the “turbidity threshold (L, M, H) 1.4” value [1] was “L (low solubility if the threshold concentration is <31.3 μM)”, the “turbidity threshold (L, M, H) 4.5” value [1] was “L (low solubility if the threshold concentration is <31.3 μM)” and the “turbidity threshold (L, M, H) 6.8” value [1] was “L (low solubility if the threshold concentration is <31.3 μM)”. The “turbidity threshold (L, M, H) 7.4” value [1] was “L (low solubility if the threshold concentration is <31.3 μM)”, the IC50 (CYP1A2) was greater than 10 µM and the IC50 (CYP2C19) was less than 5 µM. The IC50 (CYP2C9) was greater than 10 µM, the IC50 (CYP2D6) was greater than 10 µM and the IC50 (CYP3A4(BFC)) was greater than 10 µM. The IC50 (CYP3A4(BQ)) was greater than 10 µM.
With CCCS(=O)(=O)Nc1ccc(F)c(C(=O)c2c[nH]c3ncc(-c4ccc5ncccc5c4)cc23)c1F [P-0034, Propane-1-sulfonic acid [2,4-difluoro-3-(5-quinolin-6-yl-1H-pyrrolo[2,3-b]pyridine-3-carbonyl)-phenyl]-amide] the IC50 (CYP1A2) was greater than 10 µM, the IC50 (CYP2C19) was greater than 10 µM and the IC50 (CYP2C9) was greater than 10 µM. It also gave an IC50 (CYP2D6) greater than 10 µM, an IC50 (CYP3A4(BFC)) greater than 10 µM and an IC50 (CYP3A4(BQ)) greater than 10 µM.
With CCCS(=O)(=O)Nc1ccc(F)c(C(=O)c2c[nH]c3ncc(-c4cnn(C5CCN(C(=O)OC(C)(C)C)CC5)c4)cc23)c1F [P-1001, 4-(4-{3-[2,6-Difluoro-3-(propane-1-sulfonylamino)-benzoyl]-1H-pyrrolo[2,3-b]pyridin-5-yl}-pyrazol-1-yl)-piperidine-1-carboxylic acid tert-butyl ester] the IC50 (c-Raf-1) was less than 0.1 µM, the “turbidity threshold (L, M, H) 1.4” value [1] was “M (moderate solubility if the threshold concentration is 31.3 μM to 250 μM)” and the “turbidity threshold (L, M, H) 4.5” value [1] was “L (low solubility if the threshold concentration is <31.3 μM)”. For the same compound, the “turbidity threshold (L, M, H) 6.8” value [1] was “M (moderate solubility if the threshold concentration is 31.3 μM to 250 μM)”, the “turbidity threshold (L, M, H) 7.4” value [1] was “L (low solubility if the threshold concentration is <31.3 μM)” and the IC50 (CYP1A2) was greater than 10 µM. It also gave an IC50 (CYP2C19) of 5 to 10 µM, an IC50 (CYP2C9) greater than 10 µM and an IC50 (CYP2D6) greater than 10 µM. The IC50 (CYP3A4(BFC)) was 5 to 10 µM and the IC50 (CYP3A4(BQ)) was greater than 10 µM.
In the case of COc1ccc(-c2cnc3[nH]cc(C(=O)c4c(F)ccc(NS(=O)(=O)c5cc(F)ccc5F)c4F)c3c2)cn1 [P-1404, N-{2,4-Difluoro-3-[5-(6-methoxy-pyridin-3-yl)-1H-pyrrolo[2,3-b]pyridine-3-carbonyl]-phenyl}-2,5-difluoro-benzenesulfonamide], the IC50 (B-Raf) is reported as less than 0.1 µM, the IC50 (B-Raf V600E) is reported as less than 0.1 µM and the IC50 (c-Raf-1) is reported as less than 0.1 µM. It also gave an IC50 (CYP1A2) greater than 10 µM, an IC50 (CYP2C19) greater than 10 µM and an IC50 (CYP2C9) greater than 10 µM. The IC50 (CYP2D6) was greater than 10 µM, the IC50 (CYP3A4(BFC)) was greater than 10 µM and the IC50 (CYP3A4(BQ)) was greater than 10 µM.
In the case of O=C(c1c(F)ccc(NS(=O)(=O)c2cc(F)ccc2F)c1F)c1c[nH]c2ncc(-c3cnc(NC4CC4)nc3)cc12 [P-1506, N-{3-[5-(2-Cyclopropylamino-pyrimidin-5-yl)-1H-pyrrolo[2,3-b]pyridine-3-carbonyl]-2,4-difluoro-phenyl}-2,5-difluoro-benzenesulfonamide], the “turbidity threshold (L, M, H) 1.4” value [1] is reported as “L (low solubility if the threshold concentration is <31.3 μM)”, the “turbidity threshold (L, M, H) 4.5” value [1] is reported as “L (low solubility if the threshold concentration is <31.3 μM)” and the “turbidity threshold (L, M, H) 6.8” value [1] is reported as “L (low solubility if the threshold concentration is <31.3 μM)”. The “turbidity threshold (L, M, H) 7.4” value [1] was “L (low solubility if the threshold concentration is <31.3 μM)”, the IC50 (CYP1A2) was greater than 10 µM and the IC50 (CYP2C19) was greater than 10 µM. The IC50 (CYP2C9) was less than 5 µM, the IC50 (CYP2D6) was greater than 10 µM and the IC50 (CYP3A4(BFC)) was less than 5 µM. For the same compound, the IC50 (CYP3A4(BQ)) was greater than 10 µM.
With COc1ncc(-c2cnc3[nH]cc(C(=O)c4cccc(NS(=O)(=O)c5ccccc5F)c4F)c3c2)cn1 [P-1518, 2-Fluoro-N-{2-fluoro-3-[5-(2-methoxy-pyrimidin-5-yl)-1H-pyrrolo[2,3-b]pyridine-3-carbonyl]-phenyl}-benzenesulfonamide] the “turbidity threshold (L, M, H) 1.4” value [1] was “L (low solubility if the threshold concentration is <31.3 μM)”, the “turbidity threshold (L, M, H) 4.5” value [1] was “L (low solubility if the threshold concentration is <31.3 μM)” and the “turbidity threshold (L, M, H) 6.8” value [1] was “L (low solubility if the threshold concentration is <31.3 μM)”. For the same compound, the “turbidity threshold (L, M, H) 7.4” value [1] was “L (low solubility if the threshold concentration is <31.3 μM)”, the IC50 (CYP1A2) was greater than 10 µM and the IC50 (CYP2C19) was greater than 10 µM. For the same compound, the IC50 (CYP2C9) was greater than 10 µM, the IC50 (CYP2D6) was greater than 10 µM and the IC50 (CYP3A4(BFC)) was greater than 10 µM. It also gave an IC50 (CYP3A4(BQ)) greater than 10 µM.
